According to PMC3914206:

Columns and labels:
Format in all cases: binding
Design in all cases: KINOMEscan: ABL1(F317L)-phosphorylated / KINOMEscan: ABL1(H396P)-nonphosphorylated / KINOMEscan: ABL1(H396P)-phosphorylated / KINOMEscan: ABL1(M351T)-phosphorylated / KINOMEscan: ABL1(T315I)-phosphorylated / KINOMEscan: ABL1-nonphosphorylated / KINOMEscan: ABL1-phosphorylated / KINOMEscan: ACVR2A / KINOMEscan: ACVR2B / KINOMEscan: ADCK3 / KINOMEscan: ADCK4 / KINOMEscan: AKT1 / KINOMEscan: AKT3 / KINOMEscan: ALK / KINOMEscan: ARK5 / KINOMEscan: AURKA / KINOMEscan: AURKC / KINOMEscan: BIKE / KINOMEscan: BMPR1A / KINOMEscan: BMPR1B / KINOMEscan: BMX / KINOMEscan: BRK / KINOMEscan: BRSK1 / KINOMEscan: BRSK2 / KINOMEscan: CAMK1 / KINOMEscan: CAMK1D / KINOMEscan: CAMK1G / KINOMEscan: CAMK2A / KINOMEscan: CAMK2B / KINOMEscan: AAK1 / KINOMEscan: CAMK2D / KINOMEscan: CAMK2G / KINOMEscan: ABL1(F317I)-nonphosphorylated / KINOMEscan: ABL1(F317I)-phosphorylated / KINOMEscan: ABL1(F317L)-nonphosphorylated: unit: % Ctrl
panel of 442 kinases [1] = molecular target: T1, panel of 442 kinases (Homo sapiens, UniProt P00519, T315I); conditions: Compound Concentration 10 µM
T1 construct: purchased KINOMEscan
Source text: (§1) We assessed the selectivity of members of this scaffold using the KINOMEscan methodology across a near comprehensive panel of 442 kinases [[18,27]].

panel of 442 kinases [2] = molecular target: T2, panel of 442 kinases (Homo sapiens, UniProt P10721, L576P); conditions: Compound Concentration 10 µM
T2 construct: purchased KINOMEscan
Source text: as §1

panel of 442 kinases [3] = molecular target: T3, panel of 442 kinases (Homo sapiens, UniProt P43403); conditions: kinase ZAP70; compound concentration 10 µM
T3 construct: purchased KINOMEscan
T3 sequence (P43403 1-619): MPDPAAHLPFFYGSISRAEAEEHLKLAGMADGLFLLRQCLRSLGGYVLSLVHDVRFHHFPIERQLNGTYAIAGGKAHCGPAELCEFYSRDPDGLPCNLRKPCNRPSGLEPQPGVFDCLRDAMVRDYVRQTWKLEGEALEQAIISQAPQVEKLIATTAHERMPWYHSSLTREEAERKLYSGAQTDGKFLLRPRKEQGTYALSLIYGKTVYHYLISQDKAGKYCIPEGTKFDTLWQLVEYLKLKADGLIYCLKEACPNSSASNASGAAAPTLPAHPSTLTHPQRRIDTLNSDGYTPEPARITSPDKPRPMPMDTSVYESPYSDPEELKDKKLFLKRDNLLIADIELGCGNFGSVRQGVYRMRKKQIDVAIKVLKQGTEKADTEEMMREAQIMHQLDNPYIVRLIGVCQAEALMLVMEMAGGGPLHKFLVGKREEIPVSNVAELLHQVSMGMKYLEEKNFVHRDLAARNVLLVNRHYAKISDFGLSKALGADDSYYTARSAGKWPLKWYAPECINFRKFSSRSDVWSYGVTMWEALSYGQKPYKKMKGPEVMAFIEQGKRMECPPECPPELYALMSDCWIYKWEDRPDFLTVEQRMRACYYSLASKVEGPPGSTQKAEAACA
Source text: as §1

T2 sequence (P10721 26-976 L576P): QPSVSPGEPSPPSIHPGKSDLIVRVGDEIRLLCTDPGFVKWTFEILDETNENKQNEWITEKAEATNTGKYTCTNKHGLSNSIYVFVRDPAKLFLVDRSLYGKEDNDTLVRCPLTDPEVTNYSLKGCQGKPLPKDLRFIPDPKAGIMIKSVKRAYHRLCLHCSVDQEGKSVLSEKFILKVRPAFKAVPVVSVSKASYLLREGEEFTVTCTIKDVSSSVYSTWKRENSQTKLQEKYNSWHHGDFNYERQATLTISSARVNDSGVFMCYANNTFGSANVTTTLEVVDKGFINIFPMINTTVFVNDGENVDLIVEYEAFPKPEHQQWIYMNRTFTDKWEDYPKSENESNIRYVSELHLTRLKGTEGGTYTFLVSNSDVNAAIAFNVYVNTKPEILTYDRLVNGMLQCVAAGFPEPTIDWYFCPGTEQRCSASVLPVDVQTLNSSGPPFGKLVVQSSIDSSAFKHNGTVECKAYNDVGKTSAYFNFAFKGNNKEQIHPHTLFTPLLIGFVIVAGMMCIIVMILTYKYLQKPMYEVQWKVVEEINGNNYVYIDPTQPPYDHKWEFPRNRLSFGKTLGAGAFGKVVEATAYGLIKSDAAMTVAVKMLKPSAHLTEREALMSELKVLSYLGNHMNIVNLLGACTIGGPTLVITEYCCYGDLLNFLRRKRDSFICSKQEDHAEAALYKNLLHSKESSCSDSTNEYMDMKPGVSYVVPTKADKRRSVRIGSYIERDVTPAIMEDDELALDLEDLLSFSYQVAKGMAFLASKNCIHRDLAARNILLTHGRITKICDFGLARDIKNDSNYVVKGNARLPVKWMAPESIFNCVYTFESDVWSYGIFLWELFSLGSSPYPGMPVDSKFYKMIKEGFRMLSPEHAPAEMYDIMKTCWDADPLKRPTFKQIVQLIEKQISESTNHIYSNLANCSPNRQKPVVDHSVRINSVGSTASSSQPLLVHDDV

Structure (SMILES): COc1cc(C(=O)N2CCC(N3CCN(C)CC3)CC2)ccc1Nc1ncc2c(n1)N(C1CCCC1)c1ccccc1C(=O)N2C [Compound 25, 11-cyclopentyl-2-((2-methoxy-4-(4-(4-methylpiperazin-1-yl)piperidine-1-carbonyl)phenyl)amino)-5-methyl-5H-benzo[e]pyrimido[5,4-b][1,4]diazepin-6(11H)-one]
- KINOMEscan: ABL1(T315I)-nonphosphorylated (panel of 442 kinases [1]): 100
- KINOMEscan: ABL1(T315I)-phosphorylated (panel of 442 kinases [1]): 100
- KINOMEscan: KIT(L576P) (panel of 442 kinases [2]): 93
- % Ctrl, ZAP70 (panel of 442 kinases [3]): 79 % Ctrl

Structure (SMILES): CCOc1cc(C(=O)N2CCC(N3CCN(C)CC3)CC2)ccc1Nc1ncc2c(n1)N(C1CCCC1)c1ccccc1C(=O)N2C [Compound 26]
- KINOMEscan: ABL1(T315I)-nonphosphorylated (panel of 442 kinases [1]): 95
- KINOMEscan: ABL1(T315I)-phosphorylated (panel of 442 kinases [1]): 92
- KINOMEscan: KIT(L576P) (panel of 442 kinases [2]): 100
- % Ctrl, ZAP70 (panel of 442 kinases [3]): 90 % Ctrl

Structure (SMILES): COc1cc(C(=O)N2CCC(N3CCN(C)CC3)CC2)ccc1Nc1ncc2c(n1)N1CCc3cccc(c31)C(=O)N2C [Compound 24]
- KINOMEscan: ABL1(T315I)-phosphorylated (panel of 442 kinases [1]): 100
- % Ctrl, ZAP70 (panel of 442 kinases [3]): 100 % Ctrl

Structure (SMILES): COc1cc(C(=O)N2CCC(N3CCN(C)CC3)CC2)ccc1Nc1ncc2c(n1)N(C)c1ccccc1C(=O)N2C [15 (LRRK2-IN-1)]
- KINOMEscan: ABL1(T315I)-nonphosphorylated (panel of 442 kinases [1]): 100
- KINOMEscan: ABL1(T315I)-phosphorylated (panel of 442 kinases [1]): 58
- KINOMEscan: KIT(L576P) (panel of 442 kinases [2]): 100
- % Ctrl, ZAP70 (panel of 442 kinases [3]): 79 % Ctrl
